The text below walks through data of patent US5302611A, “Oxindole alkaloids having properties stimulating the immunologic system & preparation containing the same” (Keplinger; Klaus, priority 1980, dated 1994).

Read-outs that look alike come from different tables or passages of the source.

Experiment [1] concerns neutrophil granulocytes (PMNL). Description: Granulocytic test modified after BRANDT (phagocytosis of yeast particles). Format: cell-based, human. The source says:
1. […] They represent about 60-70% of all leucocytes in the human blood. The phagocytosis effect of all these granulocytes can be measured in vitro according to a method developed by BRAND (Scand. J. Haematol. Suppl. 2, 1967) and modified by TYMPNER (Munich Med. Weekly 8, 251, 1978).
A granulocytic fraction is taken from the blood of healthy probands (PMNL--abbreviation of polymorphonuclearleucocytes)
This PMNL-fraction mainly consists of neutrophil granulocytes and few eosinophil and basophil granulocytes as well as of lymphocytes, monocytes and thrombocytes. After addition of a defined amount of yeast cells (Saccharomyces cerevisiae) and the substance to be tested incubation is carried out for 10 minutes at 37° C., the suspension is spread on an object carrier and incubated at room temperature for further 35 minutes. Then the spreads are coloured and microscopically evaluated. 100 PMNL-cells are selected per object carrier, and it is determined how many yeast particles of the individual cells have been phagocytised. The phagocytosis index indicates the average number of phagocytised yeast particles.
15 ml of heparinised venous blood of clinically healthy adults was diluted with 1.5% of dextran T 500 (Pharmacia) 2:1 and allowed to stand at room temperature for 30 minutes. The supernatant containing leucocytes was injected into a sterile plastic tube and centrifugated for 7 minutes at 500 r.p.m. The granulocytes in the deposit were washed twice with 5 ml of PPM I-buffer in each case. Then the granulocytes were suspended in about 5 ml of buffer and adjusted in the Neubauer's chamber to a concentration of 5×10^6 cells/ml.
Yeast suspended in 0.9% of NaCl was heated to 100° C., three times filtered through gaze and adjusted to 3-5×10^7 particles/ml.
The serum of 5 clinically healthy adults was mixed and frozen in portions of 5 ml. For the test dilution was carried out with 0.9% of NaCl 1:10.
The test was carried out as follows: 0.2 ml of substance dissolved in 0.9% of NaCl and 0.2 ml of 0.9% NaCl, as a control substance, were pipetted to 0.2 ml, each, of pool serum, granulocyte- and yeast suspension and first incubated for 10 minutes at 37° C. Then 0.5 ml of each preparation were applied to an object carrier and incubated in a humid chamber at room temperature for further 35 minutes. Granulocytes deposited, the supernatant was carefully washed with 0.9% of NaCl, and the object carrier was dried with a dryer.
100 granulocytes were counted out per object carrier, and it was determined how many yeast particles of the individual cells had been phagocytised. The phagocytosis index (PJ) indicates the average number of yeast particles per granulocyte. The increase (S) of the phagocytosis activity in the blank value was calculated according to: [formula]

Experiment [2] deals with isolated polymorphonuclear leucocytes (PMNL). In words: Chemiluminescence test (CL), PMNL method (isolated granulocytes). Conditions: CL method not stated. The experiment is classed as cell-based, human. On the procedure:
2. Chemiluminescence test (CL)
The low light yield of such CL-reactions of phagocytised cells is increased in the in-vitro-experiment by the addition of substances which are oxydated by activated oxygen and thus produce light of a certain wavelength, which can be physically measured. Suitable substrates are luminole (5-amino-2,3-dihydro-1,4-phthalazindione) and lucigenine (10,10'-dimethyl-9,9'-biacri-diniumdinitrate), which increase the CL-response by 10^3 times.
All tests were carried out in 6-channel-Biolumat LB 9505 of Berthold, connected to an Apple-computer with a CL-evaluation program of Berthold.
Lucigenine was chosen for light amplification which emits photons at a narrow wavelength distribution of about 510 nm and thus almost lies in the optimum of the photo-multiplier sensitivity.
The pH-value of the measuring solution should be between 7.1 and 7.4, which is obtained by the addition of veronal-buffered salt solution. The test substances were dissolved in phosphate-buffered salt solution, (PBS-buffer). Both buffer systems contain 0.1% of glucose, because the "respiratory-burst"-reaction is connected with an increase of the glucose-metabolism.
Opsonised zymosan was used for phagocyte-activation. The measurement of the CL of isolated granulocytes was carried out with native blood of isolated polymorphonuclear leucocytes (PMNL), which had been adjusted with PBS-Puffer to 10^6 […].
The test substances were first together with the isolated granulocytes or with the whole blood incubated at room temperature for 10 minutes and then in biclumate for 10 minutes at 37° C. After addition of the opsonised zymosan, measurement in the biolumat at 37° C. started. […] A curve which was typical for each substance was obtained. The integrated surfaces are directly proportional to the intensity of the CL-response.
For determining the stimulation of the "respiratory-burst" of granulocytes,which had taken place, the same formula as for the granulocytic test was used.
20 ml of native blood were mixed with 30 mg EDTA. 15 ml of this blood were mixed with 7 ml of dextran in a syringe and allowed to stand at room temperature for 30 minutes. The leucocyte-containing supernatant was transfered into a sterile centrifugal tube and centrifugated at 1000 r.p.m. for 10 minutes. The deposit consisted of leucocytes and residual portions of erythrocytes, which can influence measurement by their colour quench. The residual erythrocytes were removed by hypotonic lyis. For this purpose, the deposit was suspended in 0.25% of NaCl-solution and agitated on the whirlmix for 20 seconds. Then 20 ml of 1.6% NaCl-solution were admixed and agitated again. After centrifugation at 2000 r.p.m. for 10 minutes, the supernatant was sucked off and the whole process was repeated twice. Subsequently, the deposit was suspended in 2 ml of PBS-buffer and diluted 1:10 with Turcks-solution. It was adjusted in the Neubauer's chamber with PBS-buffer to 10^6 -cells/ml.
630 μl of veronal-buffered salt solution
100 μl of lucigenine-solution
200 μl of substance dissolved in PBS and PBS as control
After preincubation at room temperature for 10 minutes and subsequent incubation for 10 minutes at 37° C. in 6-channel-Biolumat, 40 μl of opsonised zymosan were admixed under through stirring and measurement was started. Measuring was stopped after 60 minutes.
The CL-response of the samples was stored by a computer over the measuring period, and after measurement illustrated in the form of a curve. By integration of the surfaces, the intensity of the CL-response of the respective sample was obtained in cpm.
The increase S of the CL-response by a test substance was calculated according to [formula]

Where [3] appears, read: up to a concentration of 10^-4 %.

On to `COC(=O)C1=COC(C)C2CN3CCC4(C(=O)Nc5ccccc54)C3CC12` (single isomer, unassigned; isomer b) [Pteropodine, allo-pteropodine, isomer B], for which the “activity in the granulocytic test” value in experiment [1] is “active”. In addition, the percental phagocytosis increase in experiment [1] (concentration 10^-2) came out at 11.2%; in experiment [1] (concentration 10^-3) it was 21.7%; in experiment [1] (concentration 10^-4), 26.1%; in experiment [1] (concentration 10^-5), 23.0%. The “percental increase of the CL-response” value in experiment [2] (concentration 10^-3 %, listed as Pteropidine) worked out at 10.6%; in experiment [2] (concentration 10^-4 %, listed as Pteropidine) it was 10.0%; in experiment [2] (concentration 10^-5 %, listed as Pteropidine), 23.7%; in experiment [2] (concentration 10^-6 %, listed as Pteropidine), 15.4%.

For `C1CCN2C[C@@H]3C[C@@H](CN4CCCC[C@@H]34)[C@H]2C1` [sparteine, reference compound], in experiment [1] (setting [3]), the “effect in the granulocytic test” value is recorded as “did not show any effect”.

As for `COC(=O)C1=COC(C)C2CN3CCC4(C(=O)Nc5ccccc54)C3CC12` (single isomer, unassigned; isomer b) [Mitraphylline, normal-mitraphylline, isomer B], in experiment [1], the “activity in the granulocytic test” value is on record as “not active”.

As to `CCC1CN2CCC3(C(=O)Nc4ccccc43)C2CC1C(=COC)C(=O)OC` (single isomer, unassigned; isomer b) [Rhynchophylline, normal-rhynchophyllin, isomer B], in experiment [1], the “activity in the granulocytic test” value is on record as “not active”.

Turning to `CCC1CN2CCC3(C(=O)Nc4ccccc43)C2CC1C(=COC)C(=O)OC` (single isomer, unassigned; isomer a) [Isorhynchophylline, normal-isorhynchophylline, isomer A], the “activity in the granulocytic test” value in experiment [1] is “active”. The percental phagocytosis increase in experiment [1] (concentration 10^-2) is given as 10.8%; in experiment [1] (concentration 10^-3), 25.2%; in experiment [1] (concentration 10^-4) it was 27.3%; in experiment [1] (concentration 10^-5) it was 16.1%; in experiment [1] (concentration 10^-6) it was 8.8%.

As for `COc1cc2c(cc1OC)[C@H](Cc1ccc(Oc3c4c(cc(OC)c3OC)-c3c(OC)c(OC)c(OC)c5c3[C@H](C4)N(C)CC5)cc1)N(C)CC2` [thalifaberine, reference compound], in experiment [1] (setting [3]), the “effect in the granulocytic test” value is given as “negative”.

Consider `COC(=O)C1=COC(C)C2CN3CCC4(C(=O)Nc5ccccc54)C3CC12` (single isomer, unassigned; isomer a) [Isopteropodine, allo-isopteropodine, isomer A], for which the “activity in the granulocytic test” value in experiment [1] is “active”. Besides, the percental phagocytosis increase in experiment [1] (concentration 10^-2) was determined as 23.4%; in experiment [1] (concentration 10^-3) it was 48.7%; in experiment [1] (concentration 10^-4), 55.9%; in experiment [1] (concentration 10^-5), 38.2%; in experiment [1] (concentration 10^-6), 28.2%; in experiment [1] (concentration 10^-7), 13.6%. In addition, in experiment [2] (Homo sapiens, PMNL, concentration 10^-8 %, read-out: percental increase of the CL-response), the activation at 1e-08 % was found to be 31.2%. For the same compound, the “percental increase of the CL-response” value stood at 67.2% in experiment [2] (concentration 10^-3 %); 66.0% in experiment [2] (concentration 10^-4 %); 55.7% in experiment [2] (concentration 10^-5 %); 68.1% in experiment [2] (concentration 10^-6 %); 55.3% in experiment [2] (concentration 10^-7 %).

Take `COc1ccc2cc3[n+](cc2c1OC)CCc1cc2c(cc1-3)OCO2` [berberine, reference compound]: in experiment [1] (setting [3]), the “effect in the granulocytic test” value is “inactive”.

For the compound `CC[C@@]1(O)C(=O)OCc2c1cc1n(c2=O)Cc2cc3ccccc3nc2-1` [camotothecine, reference compound], the “effect in the granulocytic test” value in experiment [1] (up to dilutions of 10^-6 %) is listed as “no effects have been found”.

Regarding huangshanine [reference compound], the “effect in the granulocytic test” value in experiment [1] (setting [3]) is recorded as “negative”.

As for `C=C[C@]12CN(C)[C@@H]3[C@H]4CO[C@H](C[C@H]41)[C@]1(C(=O)Nc4ccccc41)[C@@H]32` [Gelsemine, gelsemine, reference compound], the percental phagocytosis increase came out at 22.1% in experiment [1] (concentration 10^-2), 40.4% in experiment [1] (concentration 10^-3), 33.7% in experiment [1] (concentration 10^-4) and 8.2% in experiment [1] (concentration 10^-5).

For `O=c1cccc2n1C[C@@H]1CNC[C@H]2C1` [cytisine, reference compound], the “effect in the granulocytic test” value in experiment [1] is recorded as “did not show any effect”.

As to `COC(=O)C1=COC(C)C2CN3CCC4(C(=O)Nc5ccccc54)C3CC12` (single isomer, unassigned; isomer a) [Isomitraphylline, normal-isomitraphylline, isomer A], the “activity in the granulocytic test” value in experiment [1] is reported as “active”. In addition, the percental phagocytosis increase is listed as 16.5% in experiment [1] (concentration 10^-2); 27.0% in experiment [1] (concentration 10^-3); 27.0% in experiment [1] (concentration 10^-4); 19.4% in experiment [1] (concentration 10^-5); 5.7% in experiment [1] (concentration 10^-6). Besides, the “percental increase of the CL-response” value in experiment [2] (concentration 10^-3 %) is recorded as 15.4%; in experiment [2] (concentration 10^-4 %), 15.7%; in experiment [2] (concentration 10^-5 %), 36.1%; in experiment [2] (concentration 10^-6 %), 46.7%; in experiment [2] (concentration 10^-7 %) it was 18.6%.

`COC(=O)C1=COC(C)C2CN3CCC4(C(=O)Nc5ccccc54)C3CC12` (centres unmarked) [Speciophylline, speciophylline]: the percental phagocytosis increase in experiment [1] (concentration 10^-2) is listed as 10.5%; in experiment [1] (concentration 10^-3), 18.5%; in experiment [1] (concentration 10^-4), 26.0%; in experiment [1] (concentration 10^-5) it was 35.3%.

Turning to thalifabine [reference compound], the “effect in the granulocytic test” value in experiment [1] (setting [3]) is “negative”.
